According to patent publication US20160257697A1, “THIOPHENE-SUBSTITUTED TETRACYCLIC COMPOUNDS AND METHODS OFUSE THEREOF FOR THE TREATMENT OF VIRAL DISEASES” (priority 2013, published 2016):
Where two headings read alike, the source gives them in different places.

Assays:
Experiment in all cases: microbe, parasite or virus in culture
Type in all cases: cell-based, Hepatitis C virus (HCV)
Conditions in all cases: Replicon Assay A
[1] = tested on: HCV replicon 2B
Procedure, shortened: (§1)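 Read-out is replicon RNA per cell by real-time RT-PCR, normalised to cyclophilin mRNA amplified in the same well. Cells were exposed to compound for 3 days at 2000 cells/well in medium with 5% fetal bovine serum and 0.5% DMSO.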

[2] = tested on: HCV replicon 1A
Procedure, shortened: as §1

[3] = tested on: HCV replicon 1AY93H
Procedure, shortened: as §1

[4] = read-out: 1A Y93H IC50, replicon 1AY93H
[5] = read-out: 2B IC50, HCV replicon 2B
[6] = Hepatitis C virus, HCV replicon 1A
[7] = read-out: 1A Y93H IC50, HCV replicon 1A Y93H
[8] = Hepatitis C virus, read-out: 2B IC50 (nM), replicon 2B
[9] = Hepatitis C virus, read-out: 1A Y93H IC50 (nM), replicon 1AY93H
[10] = Hepatitis C virus, read-out: 2B IC50, HCV replicon 2B
[11] = Hepatitis C virus, read-out: 1A Y93H IC50, HCV replicon 1A Y93H

COC(=O)NC(C(=O)N1CCC[C@H]1c1ncc(-c2ccc3c(c2)cc2n3C(c3ccc(C4CC4)s3)Oc3cc(-c4cnc([C@@H]5CCCN5C(=O)[C@@H](NC(=O)OC)C(C)C)[nH]4)cc(F)c3-2)[nH]1)C1CCO[C@@H](C)C1 (single isomer, unassigned) [Compound 355] was tested, and the IC50 ([1]; read-out: 2B IC50, replicon 2B) was 2.8 nM, the IC50 ([2]; replicon 1A) was 1.9 pM and the IC50 [3, 4] was 1.75 nM.
In the case of COC(=O)NC(C(=O)N1CCC[C@H]1c1ncc(-c2ccc3c(c2)cc2n3C(c3ccc(C4CC4)s3)Oc3cc(-c4cnc([C@@H]5CCCN5C(=O)[C@@H](NC(=O)OC)C(C)C)[nH]4)cc(F)c3-2)[nH]1)C1CC(C)(C)OC(C)(C)C1 (single isomer, unassigned) [Compound 420], the IC50 [1, 5] is reported as 6.03 nM, the IC50 [2, 6] is reported as 2.9 pM and the IC50 [3, 7] is reported as 3.13 nM.
COC(=O)NC(C(=O)N1CCC[C@H]1c1ncc(-c2cc(F)c3c(c2)OC(c2ccc(C4CC4)s2)n2c-3cc3cc(-c4cnc([C@@H]5CCCN5C(=O)[C@@H](NC(=O)OC)C(C)C)[nH]4)ccc32)[nH]1)C1CCOC(C)(C)C1 (single isomer, unassigned) [Compound 212] gave an IC50 ([1]; read-out: 2B IC50, replicon 2B) of 8.59 nM, an IC50 ([2]; replicon 1A) of 68.1 pM and an IC50 [3, 4] of 6.07 nM.
For COC(=O)N[C@H](C(=O)N1CCC[C@H]1c1ncc(-c2ccc3c(c2)OC(c2cc4ccccc4s2)n2c-3cc3cc(-c4cnc([C@@H]5C[C@H]6C[C@H]6N5C(=O)[C@@H](NC(=O)OC)C(C)C)[nH]4)ccc32)[nH]1)C(C)C (single isomer, unassigned) [Compound 610], the IC50 [1, 5] was 0.272 nM, the IC50 ([2]; HCV replicon 1A) was 12.4 pM and the IC50 [3, 7] was 0.453 nM.
COC(=O)N[C@H](C(=O)N1CCC[C@H]1c1ncc(-c2cc(F)c3c(c2)OC(c2ccc(C4(N)CC4)s2)n2c-3cc3cc(-c4cnc([C@@H]5CCCN5C(=O)[C@@H](NC(=O)OC)C(C)C)[nH]4)ccc32)[nH]1)C(C)C (mixture of isomers) [Compound 57] gave an IC50 [1, 8] of 2.79 nM, an IC50 ([2]; Hepatitis C virus, replicon 1A) of 11.4 pM and an IC50 [3, 9] of 0.37 nM.
Work on COC(=O)NC(C(=O)N1CCC[C@H]1c1ncc(-c2ccc3c(c2)cc2n3C(c3ccc(C4CC4)s3)Oc3cc(-c4cnc([C@@H]5CCCN5C(=O)[C@@H](NC(=O)OC)C(C)C)[nH]4)cc(F)c3-2)[nH]1)C1C[C@@H](C)O[C@H](C)C1 (single isomer, unassigned) [Compound 192] yielded an IC50 ([1]; read-out: 2B IC50, replicon 2B) of 0.047 nM, an IC50 ([2]; replicon 1A) of 1.1 pM and an IC50 [3, 4] of 0.028 nM.
Work on COC(=O)N[C@H](C(=O)N1CCC[C@H]1c1nc(-c2cc(F)c3c(c2)OC(c2ccc(C4CC4)s2)n2c-3cc3cc(-c4c[nH]c([C@@H]5C[C@H]6C[C@H]6N5C(=O)[C@@H](NC(=O)OC)[C@@H](C)OC)n4)ccc32)c[nH]1)C(C)C (mixture of isomers) [Compound 723] yielded an IC50 [1, 10] of 0.08 nM, an IC50 [2, 6] of 2.7 pM and an IC50 [3, 11] of 0.046 nM.
In the case of COC(=O)N[C@H](C(=O)N1CCC[C@H]1c1nc(-c2ccc3c(c2)OC(c2ccc(C4CC4)s2)n2c-3cc3cc(-c4c[nH]c([C@@H]5CCCN5C(=O)[C@@H](NC(=O)OC)C5CCOCC5)n4)ccc32)c[nH]1)C1CCOCC1 (mixture of isomers) [Compound 728], the IC50 [1, 10] is reported as 0.022 nM, the IC50 [2, 6] is reported as 22 pM and the IC50 [3, 11] is reported as 0.02 nM.
For COC(=O)N[C@H](C(=O)N1CCC[C@H]1c1ncc(-c2ccc3c(c2)OC(c2cc4ccccc4s2)n2c-3cc3cc(-c4cnc([C@@H]5C[C@H]6C[C@H]6N5C(=O)[C@@H](NC(=O)OC)C(C)C)[nH]4)ccc32)[nH]1)C(C)C (single isomer, unassigned) [Compound 609], the IC50 [1, 5] was 0.995 nM, the IC50 ([2]; HCV replicon 1A) was 7.4 pM and the IC50 [3, 7] was 18 nM.
For CCN(CC)[C@@H](C(=O)N1CCC[C@H]1c1ncc(-c2ccc3c(c2)cc2n3C(c3cc4ccccc4s3)Oc3cc(-c4cnc([C@@H]5C[C@@H](F)CN5C(=O)[C@@H](c5ccccc5)N(CC)CC)[nH]4)ccc3-2)[nH]1)c1ccccc1 (mixture of isomers) [Compound 808], the IC50 [1, 10] was 0.32 nM, the IC50 [2, 6] was 26 pM and the IC50 [3, 11] was 1.2 nM.
CCc1ccc(C2Oc3cc(-c4cnc([C@@H]5CCCN5C(=O)[C@@H](NC(=O)OC)C(C)C)[nH]4)cc(F)c3-c3cc4cc(-c5cnc([C@@H]6C[C@H]7C[C@H]7N6C(=O)C(NC(=O)OC)C6CCOC(C)(C)C6)[nH]5)ccc4n32)s1 (single isomer, unassigned) [Compound 202] was tested, and the IC50 ([1]; read-out: 2B IC50, replicon 2B) was 3.31 nM, the IC50 ([2]; replicon 1A) was 1.3 pM and the IC50 [3, 4] was 0.49 nM.
COC(=O)N[C@H](C(=O)N1CCC[C@H]1c1ncc(-c2cc(F)c3c(c2)OC(c2ccc(C(C)(C)C)s2)n2c-3cc3cc(-c4cnc([C@@H]5CCCN5C(=O)[C@@H](NC(=O)OC)C(C)C)[nH]4)ccc32)[nH]1)C(C)C (single isomer, unassigned) [Compound 62] gave an IC50 [1, 8] of 2.88 nM, an IC50 ([2]; Hepatitis C virus, replicon 1A) of 1.4 pM and an IC50 [3, 9] of 0.69 nM.
